Columns and labels:
Fusarium culmorum = assay: microbe, parasite or virus in culture; type: cell-based; settings: read-out: control of Fusarium culmorum
[1] = tested on: Monographella nivalis (Microdochium nivale); assay: Monographella nivalis (Microdochium nivale) / liquid culture (foot rot cereals); type: cell-based; settings: liquid culture (potato dextrose broth), growth inhibition photometrically 4-5 days after application, compared to untreated control
Experimental: (§1) Example B9: Monographella nivalis (Microdochium nivale)/Liquid Culture (Foot Rot Cereals) Conidia of the fungus from cryogenic storage are directly mixed into a nutrient broth (potato dextrose broth). After placing a DMSO solution of test compound into a microtiter plate (96-well format), the nutrient broth containing the fungal spores is added. The test plates are incubated at 24° C. and the inhibition of growth is determined photometrically 4-5 days after application.

Alternaria solani = Alternaria solani / tomato / leaf disc (early blight); type: in vivo; settings: foliar, tomato leaf disks cv. Baby, inoculated 2 days after application, assessed 5-7 days after application, compared to untreated control
Experimental: Example B1: Alternaria solani/Tomato/Leaf Disc (Early Blight) Tomato leaf disks cv. Baby are placed on agar in multiwell plates (24-well format) and sprayed with the formulated test compound diluted in water. The leaf disks are inoculated with a spore suspension of the fungus 2 days after application. The inoculated leaf disks are incubated at 23° C./21° C.

[2] = tested on: Blumeria graminis f. sp. tritici (Erysiphe graminis f. sp. tritici); assay: Blumeria graminis f. sp. tritici / wheat / leaf disc preventative (powdery mildew); type: in vivo; settings: foliar, wheat leaf segments cv. Kanzler, inoculated 1 day after application, assessed 6-8 days after application, compared to untreated control
Experimental: Example B4: Blumeria graminis f. sp. tritici (Erysiphe graminis f. sp. tritici)/Wheat/Leaf Disc Preventative (Powdery Mildew on Wheat) Wheat leaf segments cv. Kanzler are placed on agar in a multiwell plate (24-well format) and sprayed with the formulated test compound diluted in water. The leaf disks are inoculated by shaking powdery mildew infected plants above the test plates 1 day after application. The inoculated leaf disks are incubated at 20° C. and 60% relative humidity under a light regime of 24 h darkness followed by 12 h light/12 h darkness in a climate chamber and the activity of a compound is assessed as percent disease control compared to untreated when an appropriate level of disease damage appears on untreated check leaf segments (6-8 days after application).

[3] = tested on: Mycosphaerella arachidis (Cercospora arachidicola); assay: Mycosphaerella arachidis (Cercospora arachidicola) / liquid culture (early leaf spot); type: cell-based; settings: liquid culture (potato dextrose broth), growth inhibition photometrically 4-5 days after application, compared to untreated control
Experimental: as §1, with “B10: Mycosphaerella arachidis (Cercospora arachidicola)/Liquid” for “B9: Monographella nivalis (Microdochium nivale)/Liquid”, “(Early Leaf Spot)” for “(Foot Rot Cereals)”, “broth)” for “broth).”

[4] = tested on: Glomerella lagenarium (Colletotrichum lagenarium); assay: Glomerella lagenarium (Colletotrichum lagenarium) / liquid culture (anthracnose); type: cell-based; settings: Colletotrichum orbiculare, liquid culture (potato dextrose broth), growth inhibition photometrically 3-4 days after application, compared to untreated control
Experimental: as §1, with “B3: Glomerella lagenarium (Colletotrichum lagenarium)/Liquid” for “B9: Monographella nivalis (Microdochium nivale)/Liquid”, “(Anthracnose)” for “(Foot Rot Cereals)”, “measured” for “determined”, “3-4” for “4-5”

[5] = tested on: Phaeosphaeria nodorum (Septoria nodorum); assay: Phaeosphaeria nodorum (Septoria nodorum) / wheat / leaf disc preventative (glume blotch); type: in vivo; settings: Parastagonospora nodorum, foliar, wheat leaf segments cv. Kanzler, inoculated 2 days after application, assessed 5-7 days after application, compared to untreated control
Experimental: Example B8: Phaeosphaeria Nodorum (Septoria nodorum)/Wheat/Leaf Disc Preventative (Glume Blotch) Wheat leaf segments cv. Kanzler are placed on agar in a multiwell plate (24-well format) and sprayed with the formulated test compound diluted in water. The leaf disks are inoculated with a spore suspension of the fungus 2 days after application. The inoculated test leaf disks are incubated at 20° C. and 75% relative humidity under a light regime of 12 h light/12 h darkness in a climate cabinet and the activity of a compound is assessed as percent disease control compared to untreated when an appropriate level of disease damage appears in untreated check leaf disks (5-7 days after application).

Sclerotinia sclerotiorum = Sclerotinia sclerotiorum / liquid culture (cottony rot); type: cell-based; settings: liquid culture (potato dextrose broth), growth inhibition photometrically 3-4 days after application, compared to untreated control
Experimental: Example B14: Sclerotinia sclerotiorum/Liquid Culture (Cottony Rot) Mycelia fragments of a newly grown liquid culture of the fungus are directly mixed into a nutrient broth (potato dextrose broth). After placing a DMSO solution of test compound into a microtiter plate (96-well format) the nutrient broth containing the fungal material is added. The test plates are incubated at 24° C. and the inhibition of growth is determined photometrically 3-4 days after application.

[6] = tested on: Mycosphaerella graminicola (Septoria tritici); assay: Mycosphaerella graminicola (Septoria tritici) / liquid culture (Septoria blotch); type: cell-based; settings: Zymoseptoria tritici, liquid culture (potato dextrose broth), growth inhibition photometrically 4-5 days after application, compared to untreated control
Experimental: as §1, with “B15: Mycosphaerella graminicola (Septoria tritici/Liquid” for “B9: Monographella nivalis (Microdochium nivale)/Liquid”, “(Septoria Blotch)” for “(Foot Rot Cereals)”

[7] = tested on: Botryotinia fuckeliana (Botrytis cinerea); assay: Botryotinia fuckeliana (Botrytis cinerea) / liquid culture (gray mould); type: cell-based; settings: liquid culture (Vogels broth), growth inhibition photometrically 3-4 days after application, compared to untreated control
Experimental: as §1, with “B2: Botryotinia fuckeliana (Botrytis cinerea)/Liquid” for “B9: Monographella nivalis (Microdochium nivale)/Liquid”, “(Gray Mould)” for “(Foot Rot Cereals)”, “(Vogels” for “(potato dextrose”, “3-4” for “4-5”

Pyrenophora teres = Pyrenophora teres / barley / leaf disc preventative (net blotch); type: in vivo; settings: foliar, barley leaf segments cv. Hasso, inoculated 2 days after application, assessed 5-7 days after application, compared to untreated control
Experimental: Example B12: Pyrenophora teres/Barley/Leaf Disc Preventative (Net Blotch) Barley leaf segments cv. Hasso are placed on agar in a multiwell plate (24-well format) and sprayed with the formulated test compound diluted in water. The leaf segments are inoculated with a spore suspension of the fungus 2 days after application. The inoculated leaf segments are incubated at 20° C. and 65% relative humidity under a light regime of 12 h light/12 h darkness in a climate cabinet and the activity of a compound is assessed as disease control compared to untreated when an appropriate level of disease damage appears in untreated check leaf segments (5-7 days after application).

Cc1c(C2CN(C(=O)c3cc(-c4ccc(F)cc4F)on3)Cc3sccc32)cnn1C (stereo not drawn) [Compound P-32, [5-(2,4-difluorophenyl)isoxazol-3-yl]-[4-(1,5-dimethylpyrazol-4-yl)-5,7-dihydro-4H-thieno[2,3-c]pyridin-6-yl]methanone]
≥ 80%: inhibition of growth at 20 ppm (Fusarium culmorum) | inhibition of growth at 20 ppm [1] | pest or weed control at 200 ppm (Alternaria solani) | pest or weed control at 200 ppm [2] | inhibition of growth at 20 ppm [3] | inhibition of growth at 20 ppm [4] | pest or weed control at 200 ppm [5] | inhibition of growth at 20 ppm (Sclerotinia sclerotiorum) | inhibition of growth at 20 ppm [6] | inhibition of growth at 20 ppm [7] | pest or weed control at 200 ppm (Pyrenophora teres)

C[C@H]1c2sccc2[C@@](C)(c2cnn(C)c2)CN1C(=O)c1nnc(-c2ccc(F)cc2F)s1 [Compound P-6, [5-(2,4-difluorophenyl)-1,3,4-thiadiazol-2-yl]-[(4R,7S)-4,7-dimethyl-4-(1-methylpyrazol-4-yl)-5,7-dihydrothieno[2,3-c]pyridin-6-yl]methanone]
≥ 80%: inhibition of growth at 20 ppm (Fusarium culmorum) | inhibition of growth at 20 ppm [1] | pest or weed control at 200 ppm (Alternaria solani) | pest or weed control at 200 ppm [2] | inhibition of growth at 20 ppm [3] | inhibition of growth at 20 ppm [4] | pest or weed control at 200 ppm [5] | inhibition of growth at 20 ppm (Sclerotinia sclerotiorum) | inhibition of growth at 20 ppm [6] | inhibition of growth at 20 ppm [7] | pest or weed control at 200 ppm (Pyrenophora teres)

Cc1c([C@H]2CN(C(=O)c3cc(-c4ccc(F)cc4F)on3)Cc3ccsc32)cnn1C [Compound P-3, [5-(2,4-difluorophenyl)isoxazol-3-yl]-[(7S)-7-(1,5-dimethylpyrazol-4-yl)-6,7-dihydro-4H-thieno[3,2-c]pyridin-5-yl]methanone]
≥ 80%: inhibition of growth at 20 ppm (Fusarium culmorum) | inhibition of growth at 20 ppm [1] | pest or weed control at 200 ppm (Alternaria solani) | pest or weed control at 200 ppm [2] | inhibition of growth at 20 ppm [4] | pest or weed control at 200 ppm [5] | inhibition of growth at 20 ppm (Sclerotinia sclerotiorum) | inhibition of growth at 20 ppm [6] | inhibition of growth at 20 ppm [7] | pest or weed control at 200 ppm (Pyrenophora teres)

Cn1cc(C2(C)CN(C(=O)c3nnc(-c4ccc(F)cc4F)s3)Cc3sccc32)cn1 (stereo not drawn) [Compound P-18, methylpyrazol-4-yl)-5,7-[5-(2,4-difluorophenyl)-1,3,4-thiadiazol-2-yl]-[4-methyl-4-(1-dihydrothieno[2,3-c]pyridin-6-yl]methanone]
≥ 80%: inhibition of growth at 20 ppm (Fusarium culmorum) | pest or weed control at 200 ppm (Alternaria solani) | pest or weed control at 200 ppm [2] | inhibition of growth at 20 ppm [3] | inhibition of growth at 20 ppm [4] | pest or weed control at 200 ppm [5] | inhibition of growth at 20 ppm (Sclerotinia sclerotiorum) | inhibition of growth at 20 ppm [6] | inhibition of growth at 20 ppm [7] | pest or weed control at 200 ppm (Pyrenophora teres)

C[C@H]1c2sccc2[C@@H](c2cnn(C)c2)CN1C(=O)c1nnc(-c2ccc(F)cc2F)s1 [Compound P-2, [5-(2,4-difluorophenyl)-1,3,4-thiadiazol-2-yl]-[(4R,7S)-7-methyl-4-(1-methylpyrazol-4-yl)-5,7-dihydro-4H-thieno[2,3-c]pyridin-6-yl]methanone]
≥ 80%: inhibition of growth at 20 ppm (Fusarium culmorum) | inhibition of growth at 20 ppm [1] | pest or weed control at 200 ppm (Alternaria solani) | pest or weed control at 200 ppm [2] | inhibition of growth at 20 ppm [3] | inhibition of growth at 20 ppm [4] | pest or weed control at 200 ppm [5] | inhibition of growth at 20 ppm (Sclerotinia sclerotiorum) | inhibition of growth at 20 ppm [6] | inhibition of growth at 20 ppm [7] | pest or weed control at 200 ppm (Pyrenophora teres)

Cc1c(C2CN(C(=O)c3cc(-c4ccc(F)cc4F)on3)Cc3ccsc32)cnn1C (stereo not drawn) [Compound P-33, [5-(2,4-difluorophenyl)isoxazol-3-yl]-[7-(1,5-dimethylpyrazol-4-yl)-6,7-dihydro-4H-thieno[3,2-c]pyridin-5-yl]methanone]
≥ 80%: inhibition of growth at 20 ppm (Fusarium culmorum) | inhibition of growth at 20 ppm [1] | pest or weed control at 200 ppm (Alternaria solani) | pest or weed control at 200 ppm [2] | inhibition of growth at 20 ppm [3] | inhibition of growth at 20 ppm [4] | pest or weed control at 200 ppm [5] | inhibition of growth at 20 ppm (Sclerotinia sclerotiorum) | inhibition of growth at 20 ppm [6] | inhibition of growth at 20 ppm [7] | pest or weed control at 200 ppm (Pyrenophora teres)

Cc1c(C2CN(C(=O)c3nnc(-c4ccc(F)cc4F)s3)Cc3sccc32)cnn1C (stereo not drawn) [Compound P-25, [5-(2,4-difluorophenyl)-1,3,4-thiadiazol-2-yl]-[4-(1,5-dimethylpyrazol-4-yl)-5,7-dihydro-4H-thieno[2,3-c]pyridin-6-yl]methanone]
≥ 80%: inhibition of growth at 20 ppm (Fusarium culmorum) | inhibition of growth at 20 ppm [1] | pest or weed control at 200 ppm (Alternaria solani) | pest or weed control at 200 ppm [2] | inhibition of growth at 20 ppm [4] | pest or weed control at 200 ppm [5] | inhibition of growth at 20 ppm (Sclerotinia sclerotiorum) | inhibition of growth at 20 ppm [6] | inhibition of growth at 20 ppm [7] | pest or weed control at 200 ppm (Pyrenophora teres)

C[C@H]1c2sccc2[C@@H](c2cnn(C)c2)CN1C(=O)c1cc(-c2ccc(F)cc2F)on1 (racemic) [Compound P-14, [5-(2,4-difluorophenyl)isoxazol-3-yl]-[rac-(4R,7S)-7-methyl-4-(1-methylpyrazol-4-yl)-5,7-dihydro-4H-thieno[2,3-c]pyridin-6-yl]methanone]
≥ 80%: inhibition of growth at 20 ppm (Fusarium culmorum) | pest or weed control at 200 ppm (Alternaria solani) | pest or weed control at 200 ppm [2] | inhibition of growth at 20 ppm [3] | inhibition of growth at 20 ppm [4] | pest or weed control at 200 ppm [5] | inhibition of growth at 20 ppm (Sclerotinia sclerotiorum) | inhibition of growth at 20 ppm [6] | inhibition of growth at 20 ppm [7] | pest or weed control at 200 ppm (Pyrenophora teres)

Source: US20250049035A1, “MICROBIOCIDAL BICYCLE HETEROCYCLIC DERIVATIVES” (SYNGENTA CROP PROTECTION AG, priority 2021, published 2025)
